Test results as given in patent US6500934B1, “Bivalent agonists for G-protein coupled receptors” (priority 1996, dated 2002).

How the values were obtained:
α-MSH receptor [1] = assay: Frog melanocyte assay, pigment dispersion (agonist mode) in wild type melanophores; type: cell-based, Xenopus laevis; conditions: for pigment dispersion (result in words): α-MSH-ANT dimer: at higher concentrations (FIG. 6); for EC50: FIG. 4
Experimental: Frog Melanocyte Assay. Xenopus laevis melanophores were maintained in culture as described by M. Engel et al., Biochemistry 30, 3161-3169 (1991); C. A. Slate et al., Int. J. Peptide Protein Res. 45, 290-298 (1995); and C. Plank et al., J. Biol. Chem. 269, 12918-12924 (1994). Transient expression of bombesin receptor plasmid DNA (pJG3.6BR) in melanophores was achieved by electroporation (C. A. Slate et al., Int. J. Peptide Protein Res. 45, 290-298 (1995)). Melanophores were plated (15,000 per well) on 96 well tissue culture plates (Falcon), and time and dose-response curves were obtained by microtiter plate assays (R. Duncan et al., Clin. Pharmacokinet. 27, 290-306 (1994); M. Engel et al., Biochemistry 30, 3161-3169 (1991); C. A. Slate et al., Int. J. Peptide Protein Res. 45, 290-298 (1995); C. Plank et al., J. Biol. Chem. 269, 12918-12924 (1994); and P. M. Conn et al., Endocrinology 111, 335-337 (1982)). Prior to addition of monomers or dimers, cells were washed and then incubated for one hour with 0.7× L15 media supplemented with 1 nM melatonin. […] Monomers or dimers were added to the microtiter wells in 20 μl aliquots at 10 times their final concentration. For IC50 curves, the media also was supplemented with 5 nM α-MSH.
Phototransmission was measured at 620 nm using a 340 ATTC microtiter plate reader (SLT Lab Instruments). Transmission readings were taken 1 hour following the addition of melatonin (Ti), and monomers or dimers were added immediately. Additional readings (Tf) were made at various time points (5-60 min). Data was curve fitted by nonlinear regression with y=1−(Tf/Ti). The final data was normalized and expressed as a percentage of maximal pigment dispersion (ymax).
For this study, a rapid, functional assay for G-protein-coupled receptors in frog melanophore cells (C. K. Jayawickreme et al., J. Biol. Chem. 269, 29846-29854 (1994); M. N. Potenza et al., Anal. Biochem. 206, 315-322 (1992); G. F. Graminski et al., J. Biol. Chem. 268, 5957-5964 (1993); S. Karne et al., J. Biol. Chem. 268, 19126-19133 (1993); and C. K. Jayawickreme et al., Proc. Natl. Acad. Sci. USA 91, 1614-1618 (1994)) was used. In frog melanocyte cells, ligands like α-MSH that mediate increases in cellular cyclic AMP levels, or like endothelin 3 that stimulate PI metabolism (S. Karne et al., J. Biol. Chem. 268, 19126-19133 (1993)), cause pigment dispersion and cell darkening, whereas inhibitors of cyclic AMP synthesis, like melatonin, cause pigment aggregation and cell lightening. In this study, the effect of monomeric and dimeric peptides on pigment dispersion was determined.
Wild type melanophores were used for assays involving α-MSH and α-MSH-ANT monomers and dimers. Melanophores that were transfected with a plasmid that contained the bombesin receptor coding region were used for assays involving bombesin monomer and dimer (G. F. Graminski et al., J. Biol. Chem. 268, 5957-5964 (1993); and C. K. Jayawickreme et al., Proc. Natl. Acad. Sci. USA 91, 1614-1618 (1994)).

α-MSH receptor [2] = assay: Frog melanocyte assay, inhibition of α-MSH (5 nM) mediated pigment dispersion in wild type melanophores; type: cell-based, Xenopus laevis; conditions: 5 nM α-MSH, t=30 min, FIG. 5
Experimental: Frog Melanocyte Assay. Xenopus laevis melanophores were maintained in culture as described by M. Engel et al., Biochemistry 30, 3161-3169 (1991); C. A. Slate et al., Int. J. Peptide Protein Res. 45, 290-298 (1995); and C. Plank et al., J. Biol. Chem. 269, 12918-12924 (1994). Transient expression of bombesin receptor plasmid DNA (pJG3.6BR) in melanophores was achieved by electroporation (C. A. Slate et al., Int. J. Peptide Protein Res. 45, 290-298 (1995)). […]
Phototransmission was measured at 620 nm using a 340 ATTC microtiter plate reader (SLT Lab Instruments). Transmission readings were taken 1 hour following the addition of melatonin (Ti), and monomers or dimers were added immediately. Additional readings (Tf) were made at various time points (5-60 min). […] The final data was normalized and expressed as a percentage of maximal pigment dispersion (ymax).
For this study, a rapid, functional assay for G-protein-coupled receptors in frog melanophore cells (C. K. Jayawickreme et al., J. Biol. Chem. 269, 29846-29854 (1994); M. N. Potenza et al., Anal. Biochem. 206, 315-322 (1992); G. F. Graminski et al., J. Biol. Chem. 268, 5957-5964 (1993); S. Karne et al., J. Biol. Chem. 268, 19126-19133 (1993); and C. K. Jayawickreme et al., Proc. Natl. Acad. Sci. USA 91, 1614-1618 (1994)) was used. […] In this study, the effect of monomeric and dimeric peptides on pigment dispersion was determined. […]

[3] = wild type melanophores, t=30 min

Substance: MPdFRdWFKPV-GGGεAhx-K(20)-βAla [α-MSH-ANT monomer, assay monomer lacking cysteine]
- stimulation of dispersion below a concentration of 1 μM (α-MSH receptor [1]; below 1 μM, absence of α-MSH): did not stimulate dispersion
- pigment dispersion (result in words) (α-MSH receptor [1]; wild type melanophores): No significant dispersion
- IC50 (α-MSH receptor [2]): 120 ± 6 nM

Substance: SYSMEHFRWGKPV-GGG-εAhx-K(20)-βAla [α-MSH monomer]
- EC50 (α-MSH receptor [1]; [3]): 372 ± 18 nM
- pigment dispersion (result in words) (α-MSH receptor [1]; wild type melanophores): stimulated dispersion in a time and dose-dependent manner

Substance: homodimer: ligand domains SYSMEHFRWGKPV-, spacer GGG-εAhx, K(20), two disulfide-linked cysteines end capped at C-termini with β-alanine [α-MSH dimer]
- EC50 of dimer lower as compared to the monomer (fold) (α-MSH receptor [1]; [3]): approximately 5 fold
- EC50 (α-MSH receptor [1]; [3]): 72.5 ± 5 nM
- pigment dispersion (result in words) (α-MSH receptor [1]; wild type melanophores): stimulated dispersion in a time and dose-dependent manner
